Experimental data from patent US8895596B2, “Cyclic benzimidazole derivatives useful as anti-diabetic agents” (Merck Sharp & Dohme Corp, priority 2010, dated 2014).

What was measured:
[1] = target: recombinant human AMPK complex 1 (containing α1β1γ1) (Homo sapiens, UniProt Q13131+Q9Y478); experiment: in vitro AMPK activation assay (AMPKSAMSF); format: biochemical; conditions: recombinant human AMPK complex 1 (α1β1γ1); for EC50: table
Protocol: AMPKSAMSF (in vitro AMPK Activation Assay)
The recombinant human AMPK complex 1 (containing α1β1γ1) was obtained from baculovirus expression system. Recombinant viruses were generated by cotransfection of AMPK/pBacPak9 clones with Baculogold baculovirus DNA (Pharmingen) in spodoptera frugiperda 21 cells according to the manufacturer's instructions. Each round of virus amplification was performed for 5 days in Grace's medium containing 10% serum. Virus that had been subjected to three rounds of amplification was used for all protein production procedures. To express the AMPK complex, sf21 cells were adapted to serum free medium (SF900 II, Invitrogen) by sequential dilution from serum containing stocks into SF900II medium and maintained in shaker flasks at 90 rpm at 27° C. The recombinant AMPK enzyme complex was produced by triple infection, one recombinant virus for each of the subunits, in sf21 cells under serum free conditions. Cells were infected in log phase, 1×10^6 cells/ml, at a multiplicity of infection […] were harvested by centrifugation at 10,000×g for 15 minutes after 72 hours of infection with viruses. The insect cell pellet from 2 liters of culture was resuspended in 50 ml lysis buffer (20 mM Tris-HCl, 50 mM NaCl, 50 mM NaF, 30 mM Na PPi, 0.25 M sucrose, 10 mM ZnCl2, 2 mM DTT, 0.4 mg/ml digitonin) and subjected to two cycles of freeze-thaw lysis in a dry-ice ethanol bath. Insoluble material was removed by centrifugation at 10,000×g and the supernatant was fractionated with use of polyethylene glycol (PEG). The protein fraction precipitating between 2.5 and 6% PEG was used for further purification using a Blue-Sepharose step (Zhou et al, J. Clin. Invest. 108, 1167-1174, 2001).
The in vitro AMPK activation assay is performed in a volume of 30 μl in a 384-well plate. Enzyme reactions were assembled in the microtiter plate by adding 15 μl of 2× enzyme in assay buffer (20 mM HEPES, pH 7.3, 5 mM MgCl2, 3 mM DTT, 0.01% Brij 35 and CamK Kinase, to activate AMPK) to wells which contained either DMSO or compound. The reaction was initiated with the addition of […] substrate mixture containing 200 μM ATP, and 3.0 μM fluorescently labeled SAMS (5-FAM-HMRSAMSGLHLVKRR-COOH) in assay buffer. After 45-minute incubation at 25° C., the reaction was stopped by the addition of 70 μl stop buffer (100 mM HEPES, pH 7.3, 40 mM EDTA, 0.015% Brij 35). Phosphorylated 5-FAM SAMS product is assessed using a Caliper EZ Reader LabChip microfluidics reader. Product conversion is determined by calculating the peak heights of the substrate and product and reporting the product/(product+substrate) peak ratio. The 10-point titration data were expressed as maximum AMP activation. The results were plotted using 4 parameter fit and the inflection point reflecting 50% of the maximum activation was reported as the EC50.

ob/ob and db/db mice = conditions: following 8 weeks of administration; cited from earlier work

recombinant human AMPK complex 1 (containing α1β1γ1), sequence (Q13131 whole entry): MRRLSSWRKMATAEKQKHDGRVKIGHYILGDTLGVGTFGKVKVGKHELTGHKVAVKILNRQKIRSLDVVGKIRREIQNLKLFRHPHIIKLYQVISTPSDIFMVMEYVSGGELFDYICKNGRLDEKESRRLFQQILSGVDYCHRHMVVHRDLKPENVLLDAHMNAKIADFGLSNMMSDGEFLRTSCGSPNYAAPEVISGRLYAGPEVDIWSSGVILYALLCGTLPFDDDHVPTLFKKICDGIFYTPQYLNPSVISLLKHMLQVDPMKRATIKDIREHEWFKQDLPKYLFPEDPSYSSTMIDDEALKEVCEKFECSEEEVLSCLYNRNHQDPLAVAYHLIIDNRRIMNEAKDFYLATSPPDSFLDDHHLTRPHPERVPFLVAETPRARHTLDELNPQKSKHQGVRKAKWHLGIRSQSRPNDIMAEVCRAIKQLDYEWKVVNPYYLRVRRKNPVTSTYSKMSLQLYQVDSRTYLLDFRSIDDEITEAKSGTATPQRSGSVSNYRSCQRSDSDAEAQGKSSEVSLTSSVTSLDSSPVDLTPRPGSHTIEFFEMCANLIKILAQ
recombinant human AMPK complex 1 (containing α1β1γ1), sequence (Q9Y478 whole entry): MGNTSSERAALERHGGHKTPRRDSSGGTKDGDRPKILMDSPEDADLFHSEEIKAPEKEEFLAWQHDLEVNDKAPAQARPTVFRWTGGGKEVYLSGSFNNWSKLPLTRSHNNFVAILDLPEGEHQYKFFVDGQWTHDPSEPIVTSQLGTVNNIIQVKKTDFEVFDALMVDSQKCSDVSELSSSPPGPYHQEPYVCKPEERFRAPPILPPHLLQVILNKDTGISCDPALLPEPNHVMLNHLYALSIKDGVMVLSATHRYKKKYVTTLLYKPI
recombinant human AMPK complex 1 (containing α1β1γ1), sequence (P54619 whole entry partner): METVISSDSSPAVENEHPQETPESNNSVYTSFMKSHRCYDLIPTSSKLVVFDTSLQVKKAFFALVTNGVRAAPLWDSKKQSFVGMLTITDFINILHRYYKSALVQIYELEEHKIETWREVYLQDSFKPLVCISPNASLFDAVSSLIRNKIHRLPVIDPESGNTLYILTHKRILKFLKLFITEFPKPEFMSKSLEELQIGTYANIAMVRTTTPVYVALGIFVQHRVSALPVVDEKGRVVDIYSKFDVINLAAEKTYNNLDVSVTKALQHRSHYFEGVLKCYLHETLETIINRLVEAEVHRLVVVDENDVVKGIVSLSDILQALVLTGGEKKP

Q: Which “% Maximum AMP Activation of human AMPK Complex 1” value (shortened to “% Maximum AMP Activation”) [1] does the source give for `O=C(O)C1CCC(Oc2nc3c(F)c(-c4ccc(-c5ccccc5)cc4)c(F)cc3[nH]2)CC1` (stereo not drawn) [Example 15, 4-{[5-(biphenyl-4-yl)-4,6-difluoro-1H-benzimidazol-2-yl]oxy}-cyclohexane carboxylic acid] here?
A: 653%

Q: And the EC50 [1]?
A: 10 nM

Q: With `O=C(O)C1CC(Oc2nc3c(F)c(-c4ccc(-c5ccccc5)cc4)c(F)cc3[nH]2)C1` (stereo not drawn) [Example 18, 3-{[5-(biphenyl-4-yl)-4,6-difluoro-1H-benzimidazol-2-yl]oxy}cyclobutanecarboxylic acid] as the compound, how does the “% Maximum AMP Activation” value [1] read?
A: 538%

Q: And the EC50 [1]?
A: 14 nM

Q: With `O=C(O)C1CCC(Oc2nc3c(F)c(-c4ccc5c(ccn5C5CC5)c4)c(F)cc3[nH]2)CC1` (stereo not drawn) [Example 21, 4-{[5-(1-Cyclopropyl-1H-indol-5-yl)-4,6-difluoro-1H-benzimidazol-2-yl]oxy}cyclohexanecarboxylic acid] as the compound, how does the “% Maximum AMP Activation” value [1] read?
A: 504%

Q: What about the EC50 [1] of the same compound?
A: 4 nM

Q: With `O=C(O)C1CC1COc1nc2c(F)c(-c3ccc(-c4ccccc4)cc3)c(F)cc2[nH]1` (stereo not drawn) [Example 19, 2-({[5-(biphenyl-4-yl)-4,6-difluoro-1H-benzimidazol-2-yl]oxy}methyl)cyclopropane-carboxylic acid] as the compound, how does the “% Maximum AMP Activation” value [1] read?
A: 631%

Q: And the EC50 [1]?
A: 17 nM

Q: Which results are given for `O=C(O)C1CCCC(Oc2nc3c(F)c(-c4ccc(-c5ccccc5)cc4)c(F)cc3[nH]2)C1` (stereo not drawn) [Example 16, 3-{[5-(biphenyl-4-yl)-4,6-difluoro-1H-benzimidazol-2-yl]oxy}cyclohexanecarboxylic acid]?
A: % Maximum AMP Activation of human AMPK Complex 1 [1]: 617%; EC50 [1]: 6 nM

Q: Which blood glucose reduction (ob/ob and db/db mice) does the source give for `NC(=O)c1ncn([C@@H]2O[C@H](CO)[C@@H](O)[C@H]2O)c1N` [AICAR] here?
A: 35%

Q: What does the source list for `O=C(O)C1CCC(Oc2nc3c(F)c(-c4ccc(-c5ccccc5)cc4)c(F)cc3[nH]2)C1` (stereo not drawn) [Example 17, 3-{[5-(biphenyl-4-yl)-4,6-difluoro-1H-benzimidazol-2-yl]oxy}cyclopentanecarboxylic acid]?
A: % Maximum AMP Activation of human AMPK Complex 1 [1]: 593%; EC50 [1]: 13 nM

Q: Which “% Maximum AMP Activation” value [1] does the source give for `O=C(O)C1CCC(Oc2nc3c(F)c(-c4ccc(-c5ccc(C(=O)N6CCC(O)CC6)cc5)cc4)c(F)cc3[nH]2)CC1` (single isomer, unassigned) [Example 20, 4-[(4,6-difluoro-5-{4′-[(4-hydroxypiperidin-1-yl)carbonyl]biphenyl-4-yl}-1H-benzimidazol-2-yl)oxy]cyclohexanecarboxylic acid] here?
A: 642%

Q: What about the EC50 [1] of the same compound?
A: 10 nM
